From ChEMBL document CHEMBL2074371, “The dietary polyphenol ellagic acid is a potent inhibitor of hOAT1” (Drug Metab Dispos, 2005)
pIC50: −log10 of the molar value.

Legend:
[1] = molecular target: T1, Solute carrier family 22 member 11 (Homo sapiens, UniProt Q9NSA0); assay: TP_TRANSPORTER: inhibition of p-aminohippurate uptake (p-aminohippurate / 10uM) by ellagic acid at a concentration of 35uM in Xenopus laevis oocytes; type: functional, cell-based; set-up: scale not given: the % may be the effect or the level left; settings: oocyte
T1 sequence (Q9NSA0 whole entry): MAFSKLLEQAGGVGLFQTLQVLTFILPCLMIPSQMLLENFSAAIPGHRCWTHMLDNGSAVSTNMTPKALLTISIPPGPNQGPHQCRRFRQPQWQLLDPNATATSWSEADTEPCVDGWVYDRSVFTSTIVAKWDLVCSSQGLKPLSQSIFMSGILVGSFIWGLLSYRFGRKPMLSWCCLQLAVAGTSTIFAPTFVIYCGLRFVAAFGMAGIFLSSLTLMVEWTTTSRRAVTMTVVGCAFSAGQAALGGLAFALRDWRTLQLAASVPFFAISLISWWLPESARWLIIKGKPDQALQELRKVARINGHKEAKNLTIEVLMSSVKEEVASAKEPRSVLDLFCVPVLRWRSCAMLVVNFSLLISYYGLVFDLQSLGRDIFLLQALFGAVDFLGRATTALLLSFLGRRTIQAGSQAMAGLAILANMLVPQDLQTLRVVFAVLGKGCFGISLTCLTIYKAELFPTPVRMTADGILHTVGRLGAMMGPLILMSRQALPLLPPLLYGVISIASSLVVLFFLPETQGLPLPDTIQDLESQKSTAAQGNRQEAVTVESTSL

[2] = molecular target: T1, Solute carrier family 22 member 11; assay: (§1) TP_TRANSPORTER: uptake in Xenopus laevis oocytes; type: functional, cell-based; settings: oocyte
[3] = molecular target: T2, Solute carrier family 22 member 6 (Homo sapiens, UniProt Q4U2R8); assay: as §1; type: functional, cell-based; settings: oocyte
T2 sequence (Q4U2R8 whole entry): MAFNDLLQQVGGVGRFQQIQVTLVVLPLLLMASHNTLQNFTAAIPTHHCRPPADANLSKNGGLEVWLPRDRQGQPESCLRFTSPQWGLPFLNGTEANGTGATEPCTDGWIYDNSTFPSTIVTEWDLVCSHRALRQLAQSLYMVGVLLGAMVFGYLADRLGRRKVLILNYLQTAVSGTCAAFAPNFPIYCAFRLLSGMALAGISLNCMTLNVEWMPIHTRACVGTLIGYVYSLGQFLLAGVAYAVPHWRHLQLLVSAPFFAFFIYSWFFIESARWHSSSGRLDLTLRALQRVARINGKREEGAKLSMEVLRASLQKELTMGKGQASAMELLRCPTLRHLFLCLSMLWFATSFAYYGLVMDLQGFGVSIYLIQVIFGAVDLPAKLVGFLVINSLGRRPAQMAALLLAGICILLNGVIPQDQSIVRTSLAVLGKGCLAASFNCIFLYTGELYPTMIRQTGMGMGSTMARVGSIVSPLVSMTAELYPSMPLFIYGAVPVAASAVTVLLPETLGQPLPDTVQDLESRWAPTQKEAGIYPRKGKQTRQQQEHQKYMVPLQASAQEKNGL

[4] = molecular target: T2, Solute carrier family 22 member 6; assay: TP_TRANSPORTER: inhibition of ochratoxin A uptake (ochratoxin A / 1uM) in Xenopus laevis oocytes; type: functional, cell-based, Oocyte

O=c1oc2c(O)c(O)cc3c(=O)oc4c(O)c(O)cc1c4c23 [ELLAGIC ACID]
Activity [1]: 35% | Activity [2]: substrate [+] | Activity [3]: substrate [+] | pIC50 [4]: 6.57
